Results from patent publication US20250170248A1, “SMARCA DEGRADERS AND USES THEREOF” (Kymera Therapeutics, Inc., priority 2021, published 2025).

How the values were obtained:
Format in all cases: cell-based
SMARCA4 = biological target: T1, SMARCA4 (Homo sapiens, UniProt P51532); assay: SMARCA4 Western blot degradation in MV4-11 cells; conditions: for SMARCA4 MSD MV411 degradation 24 h: average Dmax % / DC50: MV4-11 cells; for DC50 / Dmax: 24 h; for DC50: read-out: SMARCA4 MSD MV411 degradation 24 h: Mean external-Abs DC50; for Dmax: MV4-11, MV4-11 cells, read-out: SMARCA4 MSD MV411 degradation 24 h: average Dmax %
T1 construct: SMARCA2/SMARCA4 protein degradation selectivity in MV4-11 cells; endogenous in cells; host or cells: MV4-11
T1 sequence (P51532 whole entry): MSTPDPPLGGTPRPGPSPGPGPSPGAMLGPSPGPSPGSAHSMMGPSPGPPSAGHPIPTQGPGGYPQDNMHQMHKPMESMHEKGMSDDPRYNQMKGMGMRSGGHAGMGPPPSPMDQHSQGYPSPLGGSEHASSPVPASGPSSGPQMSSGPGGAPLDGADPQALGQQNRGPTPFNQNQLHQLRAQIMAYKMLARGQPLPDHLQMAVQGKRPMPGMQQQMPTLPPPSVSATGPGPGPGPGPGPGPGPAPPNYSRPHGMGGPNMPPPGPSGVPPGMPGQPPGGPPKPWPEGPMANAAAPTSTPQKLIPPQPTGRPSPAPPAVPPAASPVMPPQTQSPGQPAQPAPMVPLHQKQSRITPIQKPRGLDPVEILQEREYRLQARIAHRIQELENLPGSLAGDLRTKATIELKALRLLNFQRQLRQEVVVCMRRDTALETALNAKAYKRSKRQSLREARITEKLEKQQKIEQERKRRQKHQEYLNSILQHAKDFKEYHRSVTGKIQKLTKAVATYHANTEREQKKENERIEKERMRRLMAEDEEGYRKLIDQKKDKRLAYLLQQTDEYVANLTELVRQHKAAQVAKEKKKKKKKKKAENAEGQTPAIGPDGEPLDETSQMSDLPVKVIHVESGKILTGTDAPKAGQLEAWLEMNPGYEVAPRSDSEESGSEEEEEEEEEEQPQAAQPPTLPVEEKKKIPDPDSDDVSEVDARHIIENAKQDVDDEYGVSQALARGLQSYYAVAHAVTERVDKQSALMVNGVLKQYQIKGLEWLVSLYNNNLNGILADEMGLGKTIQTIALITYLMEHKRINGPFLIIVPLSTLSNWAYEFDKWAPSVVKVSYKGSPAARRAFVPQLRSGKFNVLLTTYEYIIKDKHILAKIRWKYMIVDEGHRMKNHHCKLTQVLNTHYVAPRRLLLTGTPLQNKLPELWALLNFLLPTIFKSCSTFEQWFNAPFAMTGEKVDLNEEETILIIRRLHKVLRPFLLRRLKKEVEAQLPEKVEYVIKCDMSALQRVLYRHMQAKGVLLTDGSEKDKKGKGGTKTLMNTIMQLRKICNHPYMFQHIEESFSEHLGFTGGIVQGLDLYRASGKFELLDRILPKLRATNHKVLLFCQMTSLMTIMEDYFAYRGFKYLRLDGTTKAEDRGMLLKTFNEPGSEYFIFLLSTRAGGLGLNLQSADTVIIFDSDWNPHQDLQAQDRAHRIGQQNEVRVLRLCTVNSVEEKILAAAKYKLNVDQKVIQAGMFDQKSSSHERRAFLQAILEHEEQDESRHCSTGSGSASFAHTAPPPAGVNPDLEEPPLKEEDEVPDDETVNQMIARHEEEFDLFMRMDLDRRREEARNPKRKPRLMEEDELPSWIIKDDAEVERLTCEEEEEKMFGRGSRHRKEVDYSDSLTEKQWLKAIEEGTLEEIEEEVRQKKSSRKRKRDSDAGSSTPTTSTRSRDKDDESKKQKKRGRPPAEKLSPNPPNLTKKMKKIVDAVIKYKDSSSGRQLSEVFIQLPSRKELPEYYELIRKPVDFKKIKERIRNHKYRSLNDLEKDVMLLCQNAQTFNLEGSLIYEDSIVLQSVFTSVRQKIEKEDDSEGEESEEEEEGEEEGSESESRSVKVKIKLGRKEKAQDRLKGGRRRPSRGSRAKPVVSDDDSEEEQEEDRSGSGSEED
In short: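 24 h compound exposure, MV4-11; RIPA lysates → SDS-PAGE → NC membrane; anti-SMARCA2/BRM, anti-BRG1, β-actin loading control; LI-COR fluorescence read. DC50 and Dmax at 24 h reported as letter bins.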

SMARCA2 [1] = biological target: T2, SMARCA2 (Homo sapiens, UniProt P51531); assay: SMARCA2 Western blot degradation in MV4-11 cells; parameters: SMARCA2/SMARCA4 protein degradation selectivity in MV4-11 cells; endogenous in cells; host or cells: MV4-11; conditions: for SMARCA2 MSD MV411 degradation 24 h: average Dmax % / DC50 / Selectivity in MV411: MV4-11 cells; for SMARCA2 MSD MV411 degradation 24 h: average Dmax % / DC50 / Dmax: 24 h; for DC50: read-out: SMARCA2 MSD MV411 degradation 24 h: Mean external-Abs DC50; for Selectivity in MV411: SMARCA2/4 selectivity; for Dmax: MV4-11, MV4-11 cells, read-out: SMARCA2 MSD MV411 degradation 24 h: average Dmax %
T2 sequence (P51531 whole entry): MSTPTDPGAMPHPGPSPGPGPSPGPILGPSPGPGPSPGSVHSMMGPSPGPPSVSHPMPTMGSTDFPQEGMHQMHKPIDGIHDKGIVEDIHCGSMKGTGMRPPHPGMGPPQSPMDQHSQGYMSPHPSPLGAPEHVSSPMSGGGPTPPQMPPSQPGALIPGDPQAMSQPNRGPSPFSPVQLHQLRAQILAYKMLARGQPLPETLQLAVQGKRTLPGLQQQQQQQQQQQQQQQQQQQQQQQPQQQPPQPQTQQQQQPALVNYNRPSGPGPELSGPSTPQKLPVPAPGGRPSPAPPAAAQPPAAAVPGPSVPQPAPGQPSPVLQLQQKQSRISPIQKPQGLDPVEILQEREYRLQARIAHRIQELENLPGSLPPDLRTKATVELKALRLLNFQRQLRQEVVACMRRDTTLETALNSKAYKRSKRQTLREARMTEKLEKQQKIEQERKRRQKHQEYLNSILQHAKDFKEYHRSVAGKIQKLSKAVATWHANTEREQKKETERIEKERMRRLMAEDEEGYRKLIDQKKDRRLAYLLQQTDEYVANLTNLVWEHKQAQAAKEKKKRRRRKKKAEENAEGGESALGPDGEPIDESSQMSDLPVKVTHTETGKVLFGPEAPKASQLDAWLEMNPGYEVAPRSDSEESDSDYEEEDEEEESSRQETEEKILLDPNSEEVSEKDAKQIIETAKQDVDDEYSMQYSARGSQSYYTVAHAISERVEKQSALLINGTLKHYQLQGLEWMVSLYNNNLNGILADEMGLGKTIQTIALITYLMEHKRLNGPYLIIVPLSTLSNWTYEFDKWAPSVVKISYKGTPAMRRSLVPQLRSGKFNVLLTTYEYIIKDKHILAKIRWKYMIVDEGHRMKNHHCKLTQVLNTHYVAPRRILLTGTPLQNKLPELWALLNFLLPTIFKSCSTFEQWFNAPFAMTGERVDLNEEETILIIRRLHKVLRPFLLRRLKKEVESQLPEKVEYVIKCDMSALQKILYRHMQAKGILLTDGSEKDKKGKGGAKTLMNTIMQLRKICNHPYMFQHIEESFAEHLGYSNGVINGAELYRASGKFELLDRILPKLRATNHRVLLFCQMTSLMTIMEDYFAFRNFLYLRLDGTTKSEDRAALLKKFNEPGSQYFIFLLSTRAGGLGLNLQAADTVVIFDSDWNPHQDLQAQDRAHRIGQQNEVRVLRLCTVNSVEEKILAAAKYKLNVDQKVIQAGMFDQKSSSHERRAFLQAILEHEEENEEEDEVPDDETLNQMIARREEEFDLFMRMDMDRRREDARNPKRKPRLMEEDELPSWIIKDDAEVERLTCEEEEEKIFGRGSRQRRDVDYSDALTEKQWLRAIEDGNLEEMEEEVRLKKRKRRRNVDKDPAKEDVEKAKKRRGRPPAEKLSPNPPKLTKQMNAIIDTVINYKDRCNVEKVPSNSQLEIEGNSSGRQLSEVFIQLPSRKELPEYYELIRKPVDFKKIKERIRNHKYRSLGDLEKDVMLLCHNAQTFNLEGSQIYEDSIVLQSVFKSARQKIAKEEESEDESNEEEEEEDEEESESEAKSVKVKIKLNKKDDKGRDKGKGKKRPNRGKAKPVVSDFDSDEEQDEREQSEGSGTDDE

SMARCA2 [2] = biological target: T2, SMARCA2; assay: MSD SMARCA2 degradation in A549 cell line; conditions: for SMARCA2 MSD A549 degradation 24 h: Average Dmax % / DC50: A549 cells; for DC50 / Dmax: 24 h; for DC50: read-out: SMARCA2 MSD A549 degradation 24 h: Average external-Abs DC50; for Dmax: A549, A549 cells
In short: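 A549 cells treated 24 h with compound, 3-fold series from 1000 nM. Lysates captured on MSD plates and SMARCA2 quantified with anti-SMARCA2 and SULFO-TAG secondary antibodies (electrochemiluminescence). DC50 and Dmax (% degradation at 24 h) reported as letter bins.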

Row | SMARCA4 MSD MV411 degradation 24 h: average Dmax % (SMARCA4) | DC50 (SMARCA4) | SMARCA2 MSD MV411 degradation 24 h: average Dmax % (SMARCA2 [1]) | DC50 (SMARCA2 [1]) | Selectivity in MV411 (SMARCA2 [1]) | SMARCA2 MSD A549 degradation 24 h: Average Dmax % (SMARCA2 [2]) | DC50 (SMARCA2 [2]) | Dmax (SMARCA4) | Dmax (SMARCA2 [1]) | Dmax (SMARCA2 [2]) | SMILES
1 | D (D (<50% degradation)) | > 100 nM | B (B (>70-90% degradation)) | 10 to 100 nM | C (C (10-100 fold)) | A (A (>90% degradation)) | > 100 nM |  |  |  | C#Cc1ccc(CNC(=O)[C@@H]2C[C@@H](O)CN2C(=O)[C@@H](NC(=O)[C@H]2CC3(CC[C@H](N4CCN(c5cnc(N6CCc7[nH]c8nnc(-c9ccccc9O)cc8c7[C@H]6C)nc5)CC4)CC3)C2)C(C)(C)C)cc1 (single isomer, unassigned) [I-300]
2 |  | 10 to 100 nM |  | 1 to 10 nM | C (C (10-100 fold)) |  | 10 to 50 nM | > 90% | > 90% | > 90% | C#Cc1ccc(CNC(=O)[C@@H]2C[C@@H](O)CN2C(=O)[C@@H](NC(=O)[C@H]2CC3(C2)C[C@H](c2cnc(N4CCC(N5CCN6c7cc(-c8ccccc8O)nnc7NC[C@H]6C5)CC4)nc2)C3)C(C)(C)C)cc1 (single isomer, unassigned) [I-301]
3 |  | > 100 nM |  | 1 to 10 nM | B (B (>100-500 fold)) |  | 50 to 100 nM | < 50% | 70 to 90% | > 90% | C#Cc1ccc([C@H](CO)NC(=O)[C@@H]2C[C@@H](O)CN2C(=O)[C@@H](NC(=O)N2CC3(CC(N4CCC(c5cnc(N6CCc7[nH]c8nnc(-c9ccccc9O)cc8c7[C@H]6C)nc5)CC4)C3)C2)C(C)(C)C)nc1 (single isomer, unassigned) [I-304]
4 |  | > 100 nM |  | > 100 nM | D (D (<10 fold)) |  | > 100 nM | < 50% | < 50% | < 50% | C#Cc1ccc(CNC(=O)[C@@H]2C[C@@H](O)CN2C(=O)[C@H](NC(=O)[C@H]2CCC3(CC2)C[C@H](N2CCN(c4cnc(N5CCN6c7cc(-c8ccccc8O)nnc7NC[C@H]6C5)nc4)CC2)C3)C(C)(C)CCO)c(Cl)c1 (single isomer, unassigned) [I-306]
5 |  | > 100 nM |  | 1 to 10 nM | C (C (10-100 fold)) |  | 10 to 50 nM | 70 to 90% | 70 to 90% | > 90% | C#Cc1ccc(CNC(=O)[C@@H]2C[C@@H](O)CN2C(=O)[C@@H](NC(=O)[C@H]2CCC3(CC2)C[C@H](N2CCN(c4cnc(N5CCN6c7cc(-c8ccccc8O)nnc7NC[C@H]6C5)nc4)CC2)C3)C(C)(C)CCO)c(Cl)c1 (single isomer, unassigned) [I-311]
6 | D (D (<50% degradation)) | > 100 nM | B (B (>70-90% degradation)) | 10 to 100 nM | B (B (>100-500 fold)) | A (A (>90% degradation)) | 10 to 50 nM |  |  |  | C#Cc1ccc(CNC(=O)[C@@H]2C[C@@H](O)CN2C(=O)[C@@H](NC(=O)[C@H]2CCC3(CC2)C[C@H](N2CCN(c4cnc(N5CCN6c7cc(-c8ccccc8O)nnc7NC[C@H]6C5)nc4)CC2)C3)C(C)(C)CCO)c(Cl)c1 (single isomer, unassigned) [I-312]
7 |  | > 100 nM |  | > 100 nM | C (C (10-100 fold)) |  | > 100 nM | < 50% | < 50% | < 50% | C#Cc1ccc(CNC(=O)[C@@H]2C[C@@H](O)CN2C(=O)[C@H](NC(=O)N2CC3(CC(N4CCC(c5cnc(N6CCc7[nH]c8nnc(-c9ccccc9O)cc8c7[C@H]6C)nc5)CC4)C3)C2)C(C)(C)CCO)c(Cl)c1 (single isomer, unassigned) [I-316]
8 |  | > 100 nM |  | 1 to 10 nM | C (C (10-100 fold)) |  | 10 to 50 nM | 70 to 90% | 70 to 90% | > 90% | C#Cc1ccc(CNC(=O)[C@@H]2C[C@@H](O)CN2C(=O)[C@@H](NC(=O)N2CC3(CC(N4CCC(c5cnc(N6CCc7[nH]c8nnc(-c9ccccc9O)cc8c7[C@H]6C)nc5)CC4)C3)C2)C(C)(C)CCO)c(Cl)c1 (single isomer, unassigned) [I-317]
9 |  | > 100 nM |  | > 100 nM | D (D (<10 fold)) |  | > 100 nM | < 50% | < 50% | < 50% | C#Cc1cc(Cl)c(CNC(=O)[C@@H]2C[C@@H](O)CN2C(=O)[C@@H](NC(=O)[C@H]2CC3(C2)C[C@H](N2CCC(N4CCC(N5CCN6c7cc(-c8ccccc8O)nnc7NC[C@H]6C5)CC4)CC2)C3)C(C)(C)C)c(OC)c1 (single isomer, unassigned) [I-328]
10 |  | > 100 nM |  | > 100 nM | C (C (10-100 fold)) |  | > 100 nM | < 50% | 50 to 70% | 50 to 70% | C#Cc1cnc(CNC(=O)[C@@H]2C[C@@H](O)CN2C(=O)[C@@H](NC(=O)[C@H]2CC3(C2)C[C@H](N2CCC(N4CCC(N5CCN6c7cc(-c8ccccc8O)nnc7NC[C@H]6C5)CC4)CC2)C3)C(C)(C)C)c(OC)c1 (single isomer, unassigned) [I-330]
11 |  | 10 to 100 nM |  | < 1 nM | C (C (10-100 fold)) |  | 10 to 50 nM | 70 to 90% | > 90% | > 90% | C#Cc1ccc([C@H](C)NC(=O)[C@@H]2C[C@@H](O)CN2C(=O)[C@H](c2cc(OCCN3CCC(N4CCC(N5CCC(CN6CCN7c8cc(-c9ccccc9O)nnc8NC[C@H]7C6)CC5)CC4)CC3)no2)C(C)C)cc1 (single isomer, unassigned) [I-333]
12 |  | > 100 nM |  | > 100 nM | D (D (<10 fold)) |  | > 100 nM | < 50% | < 50% | 50 to 70% | C#Cc1ccc([C@H](C)NC(=O)[C@@H]2C[C@@H](O)CN2C(=O)[C@@H](c2cc(OCCN3CCC(N4CCC(N5CCC(CN6CCN7c8cc(-c9ccccc9O)nnc8NC[C@H]7C6)CC5)CC4)CC3)no2)C(C)C)cc1 (single isomer, unassigned) [I-334]
13 |  | > 100 nM |  | 10 to 100 nM | B (B (>100-500 fold)) |  | > 100 nM | < 50% | 70 to 90% | > 90% | C#Cc1ccc(CNC(=O)[C@@H]2C[C@@H](O)CN2C(=O)[C@H](NC(=O)N2CC3(CC(N4CCC(c5cnc(N6CCc7[nH]c8nnc(-c9ccccc9O)cc8c7[C@H]6C)nc5)CC4)C3)C2)C(C)(C)CCN2CCOCC2)cc1 (single isomer, unassigned) [I-337]
14 |  | > 100 nM |  | > 100 nM | C (C (10-100 fold)) |  | > 100 nM | < 50% | < 50% | < 50% | C#Cc1ccc(CNC(=O)[C@@H]2C[C@@H](O)CN2C(=O)[C@@H](NC(=O)N2CC3(CC(N4CCC(c5cnc(N6CCc7[nH]c8nnc(-c9ccccc9O)cc8c7[C@H]6C)nc5)CC4)C3)C2)C(C)(C)CCN2CCOCC2)cc1 (single isomer, unassigned) [I-338]
15 |  | > 100 nM |  | 10 to 100 nM | B (B (>100-500 fold)) |  | > 100 nM | < 50% | 50 to 70% | 70 to 90% | C#Cc1ccc(CNC(=O)[C@@H]2C[C@@H](O)CN2C(=O)[C@@H](NC(=O)[C@H]2CC3(C2)C[C@H](N2CCC(N4CCC(N5CCN6c7cc(-c8ccccc8O)nnc7NC[C@H]6C5)CC4)CC2)C3)C(C)(C)CCO)cc1 (single isomer, unassigned) [I-364]
16 | D (D (<50% degradation)) | > 100 nM | B (B (>70-90% degradation)) | 1 to 10 nM | A (A (>500 fold)) | A (A (>90% degradation)) | > 100 nM |  |  |  | C#Cc1ccc(CNC(=O)[C@@H]2C[C@@H](O)CN2C(=O)[C@@H](NC(=O)[C@H]2CC3(C2)C[C@H](N2CCC(N4CCC(N5CCN6c7cc(-c8ccccc8O)nnc7NC[C@H]6C5)CC4)CC2)C3)C(C)(C)CCO)cc1 (single isomer, unassigned) [I-365]
17 |  | 1 to 10 nM |  | < 1 nM | D (D (<10 fold)) |  | 10 to 50 nM | > 90% | > 90% | > 90% | Cc1ncsc1-c1ccc(CNC(=O)[C@@H]2C[C@@H](O)CN2C(=O)C(c2cc(OCCCN3CCC(c4cnc(N5CCN6c7cc(-c8ccccc8O)nnc7NCC6C5)nc4)CC3)no2)C(C)C)cc1 (stereo in doubt) [I-52, (2S,4R)-4-hydroxy-1-(2-(3-(3-(4-(2-((S)-2-(2-hydroxyphenyl)-6a,7,9,10-tetrahydro-5H-pyrazino[1′,2′:4,5]pyrazino[2,3-c]pyridazin-8(6H)-yl)pyrimidin-5-yl)piperidin-1-yl)propoxy)isoxazol-5-yl)-3-methylbutanoyl)-N-(4-(4-methylthiazol-5-yl)benzyl)pyrrolidine-2-carboxamide]
